Data published in patent US20240327334A1, “Covalent Inhibitors As Antiviral Agents” (Enanta Pharmaceuticals, Inc., priority 2022, published 2024).

Each compound was assayed against SARS-CoV-2 Papain-like (PLpro) protease (Severe acute respiratory syndrome coronavirus 2, UniProt P0DTD1) (assay: SARS-CoV-2 Papain-like (PLpro) protease biochemical enzyme inhibition assay (ubiquitin-fluorophore substrate, Ub-R110)). Conditions: not given.

Row | SMILES | IC50
1 | C[Si](C)(C)C#CCNC(=O)C(=O)NCc1ccccc1C(=O)NC1(c2ccc3ccccc3c2)CC1 [Example 202] | > 10000 nM

Same assay, conditions: Ub-R110 substrate; run in duplicate; read-out: PLpro IC50

Row | SMILES | IC50
2 | O=C(NCC#Cc1ncccc1Cl)C(=O)NCc1ccccc1C(=O)NC1(c2cc(F)cc(-c3cnn(C4CC4)c3)c2)CC1 [Example 263] | < 100 nM
3 | O=C(NCC#CBr)C(=O)NCc1ccccc1C(=O)NC1(c2ccc3ccccc3c2)CC1 [Example 163] | < 100 nM
4 | CC(C)(O)Cn1cc(-c2cc(C3(NC(=O)c4ccccc4CNC(=O)C(=O)NCC#N)CC3)c3ccccc3c2)cn1 [Example 353] | < 100 nM
5 | CS(=O)(=O)n1cc(-c2cc(C3(NC(=O)c4ccccc4CNC(=O)C(=O)NCC#N)CC3)c3ccccc3c2)cn1 [Example 356] | < 100 nM
6 | C[C@@H](C#Cc1c(F)cc(F)cc1C#N)NC(=O)C(=O)NCc1ccccc1C(=O)NC1(c2ccc3nn(C)cc3c2)CC1 [Example 105] | < 100 nM
7 | C[C@@H](C#Cc1ncc(F)cn1)NC(=O)C(=O)NCc1ccccc1C(=O)NC1(c2cc(F)cc(-c3cnn(C4CC4)c3)c2)CC1 [Example 144] | < 100 nM
8 | CCOc1cccnc1C#CCNC(=O)C(=O)NCc1ccccc1C(=O)NC1(c2ccc3ccccc3c2)CC1 [Example 200] | < 100 nM
9 | CC(C)(O)c1ncc(-c2cc(C3(NC(=O)c4ccccc4CNC(=O)C(=O)NCC#N)CC3)c3ccccc3c2)s1 [Example 287] | < 100 nM
10 | O=C(NC/C=C/C(=O)N1CC[C@H](O)C1)C(=O)NCc1ccccc1C(=O)NC1(c2cccc3ccccc23)CC1 [Example 555] | 100 to 1000 nM
11 | N#CCNC(=O)C(=O)NCCc1ccccc1C(=O)NC1(c2ccc3ccccc3c2)CC1 [Example 372] | > 10000 nM
12 | COCC(C)(C)NC(=O)/C=C/CNC(=O)C(=O)NCc1ccccc1C(=O)N[C@H](C)c1cccc2ccccc12 [Example 565] | 1000 to 10000 nM
13 | N#CCNC(=O)C(=O)NCc1ccccc1C(=O)NC1(c2ccc(-c3ccc(F)cc3)cc2)CC1 [Example 542] | > 10000 nM
14 | N#CCNC(=O)C(=O)NCc1ccccc1C(=O)NC1(c2cccc(Br)c2F)CC1 [Example 373] | 100 to 1000 nM
15 | COc1cc(C2(NC(=O)c3ccccc3CNC(=O)C(=O)NC[C@@H]3CCN3)CC2)cc2cn(C3CC3)nc12 [Example 512] | 1000 to 10000 nM
16 | O=C(NCC#Cc1cccnc1)C(=O)NCc1ccccc1C(=O)NC1(c2ccc3ccccc3c2)CC1 [Example 170] | 1000 to 10000 nM
17 | CC(C)[C@@H](C#Cc1ccccn1)NC(=O)C(=O)NCc1ccccc1C(=O)NC1(c2ccc3nn(C)cc3c2)CC1 [Example 204] | > 10000 nM
18 | C#CCNC(=O)C(=O)NCc1ccccc1C(=O)NC1(c2ccc3ncccc3c2)CC1 [Example 388] | < 100 nM
19 | O=C(NCC#Cc1nccs1)C(=O)NCc1ccccc1C(=O)NC1(c2ccc3ncccc3c2)CC1 [Example 389] | < 100 nM
20 | Cn1cc(C#CCNC(=O)C(=O)NCc2ccccc2C(=O)NC2(c3ccc4ccccc4c3)CC2)cn1 [Example 169] | > 10000 nM
21 | N#CCNC(=O)C(=O)NCc1ccccc1C(=O)NC1(c2ccnc3ccccc23)CC1 [Example 407] | < 100 nM
22 | N#Cc1cccc(C#CCNC(=O)C(=O)NCc2ccccc2C(=O)NC2(c3ccc4ccccc4c3)CC2)c1 [Example 93] | > 10000 nM
23 | NNC(=O)/C=C/CNC(=O)C(=O)NCc1ccccc1C(=O)NC1(c2cccc3ccccc23)CC1 [Example 553] | 100 to 1000 nM

Row | SMILES | IC50
24 | COC(=O)/C=C/CCNC(=O)C(=O)NCC1C[C@H]1C(=O)N[C@H](C)c1cccc2ccccc12 (stereo partly drawn) [Example 17] | > 10000 nM
25 | C[C@@H](C#Cc1ncccc1C(F)(F)F)NC(=O)C(=O)NCc1ccccc1C(=O)NC1(c2cc(F)cc(-c3cnn(C4CC4)c3)c2)CC1 [Example 142] | 100 to 1000 nM
26 | C#CCNC(=O)C(=O)NCc1ccccc1C(=O)NC1(c2cc(-c3nnc(C)o3)cc(-c3nnc(C)o3)c2)CC1 [Example 479] | 100 to 1000 nM
27 | COC(=O)/C=C/CNC(=O)C(=O)NCc1ncoc1C(=O)N[C@H](C)c1cccc2ccccc12 [Example 364] | > 10000 nM
28 | N#CCCOC(=O)NCc1ccccc1C(=O)NC1(c2cc(Br)cc3ccccc23)CC1 [Example 420] | 1000 to 10000 nM
29 | C[C@@H](NC(=O)c1ccccc1CNC(=O)C(=O)NC/C=C/C(=O)NC(C)(C)CO)c1cccc2ccccc12 [Example 551] | 1000 to 10000 nM
30 | C[C@@H](C#Cc1ccc([S+](C)[O-])cc1)NC(=O)C(=O)NCc1ccccc1C(=O)NC1(c2ccc3nn(C)cc3c2)CC1 (stereo partly drawn) [Example 111] | 1000 to 10000 nM
31 | N#CCCCNC(=O)C(=O)NCc1ccccc1C(=O)NC1(c2cccc3ccccc23)CC1 [Example 412] | 1000 to 10000 nM
32 | C#C[C@@H](C)NC(=O)C(=O)NCc1ccccc1C(=O)NC1(c2cccc3ccccc23)CC1 [Example 157] | 1000 to 10000 nM
33 | Cn1cc2c(F)c(C3(NC(=O)c4ccccc4CNC(=O)C(=O)NCC#N)CC3)ccc2n1 [Example 332] | < 100 nM
34 | N#CCNC(=O)C(=O)NCc1ccccc1C(=O)NC1(c2cc(-c3ccccc3)cc(C(F)(F)F)c2)CC1 [Example 468] | 100 to 1000 nM
35 | COC(=O)/C=C/CNC(=O)C(=O)N(C)Cc1ccccc1C(=O)N[C@H](C)c1cccc2ccccc12 [Example 547] | > 10000 nM
36 | C#C[C@H](C)NC(=O)C(=O)NCc1ccccc1C(=O)NC1(c2ccc3ccccc3c2)CC1 [Example 164] | 1000 to 10000 nM
37 | N#CCNC(=O)C(=O)NCc1ccccc1C(=O)NC1(c2cc(C(F)(F)F)cc(C(F)(F)F)c2)CC1 [Example 45] | 1000 to 10000 nM
38 | N#CCNC(=O)C(=O)NCc1ccccc1C(=O)NC1(c2cc(N3CCOC3=O)cc3ccccc23)CC1 [Example 317] | < 100 nM
39 | N#CN1CC[C@H](CNC(=O)C(=O)NCc2ccccc2C(=O)NC2(c3cccc4ccccc34)CC2)C1 [Example 502] | 100 to 1000 nM
40 | O=C(NCC#Cc1ccc2c(c1)CNC2=O)C(=O)NCc1ccccc1C(=O)NC1(c2ccc3ccccc3c2)CC1 [Example 410] | 100 to 1000 nM
41 | NC(=O)N1CCC[C@H]1CNC(=O)C(=O)NCc1ccccc1C(=O)NC1(c2cccc3ccccc23)CC1 [Example 505] | 1000 to 10000 nM
42 | CC(C)(C)OC(=O)N1CCC[C@@H]1CNC(=O)C(=O)NCc1ccccc1C(=O)NC1(c2cccc3ccccc23)CC1 [Example 506] | > 10000 nM
43 | N#CCNC(=O)C(=O)NCc1ccccc1C(=O)NC1(c2cc(Oc3ccccc3)cc(C(F)(F)F)c2)CC1 [Example 68] | > 10000 nM
44 | C#CCNC(=O)C(=O)NCc1ccccc1C(=O)NC1(c2cccc3ccccc23)CC1 [Example 32] | < 100 nM
45 | C#CCNC(=O)C(=O)NCc1ccccc1C(=O)NC1(c2cc(-c3cn(-c4ccc(F)cc4F)nn3)cc(C(F)(F)F)c2)CC1 [Example 57] | 1000 to 10000 nM

Row | SMILES | IC50
46 | N#CCNC(=O)C(=O)NCc1ccccc1C(=O)NC1(c2cccc3ccccc23)COC1 [Example 96] | > 10000 nM
47 | CNC(=O)/C=C/CNC(=O)C(=O)NCc1ccccc1C(=O)N[C@H](C)c1cccc2ccccc12 [Example 16] | 1000 to 10000 nM
48 | N#CCNC(=O)C(=O)NCc1ccc(C(=O)NC2CC2)cc1C(=O)NC1(c2ccc(F)c3ccccc23)CC1 [Example 116] | < 100 nM
49 | C#CCNC(=O)C(=O)NCc1ccccc1C(=O)NC1(c2cccc3c2ccn3C)CC1 [Example 530] | 100 to 1000 nM
50 | N#Cc1ccc(C#CCNC(=O)C(=O)NCc2ccccc2C(=O)NC2(c3cccc4ccccc34)COC2)c(F)c1 [Example 108] | > 10000 nM
51 | COC(=O)/C=C/CNC(=O)C(=O)Nc1ccccc1C(=O)N[C@H](C)c1cccc2ccccc12 [Example 11] | > 10000 nM
52 | O=C(NC/C=C1\CCOC1=O)C(=O)NCc1ccccc1C(=O)NC1(c2ccc3ccccc3c2)CC1 [Example 162] | 100 to 1000 nM
53 | CN1CCC(n2cc(-c3cc(F)cc(C4(NC(=O)c5ccccc5CNC(=O)C(=O)NCC#Cc5cnc(F)nc5)CC4)c3)cn2)CC1 [Example 256] | < 100 nM
54 | N#CCNC(=O)C(=O)NCc1ccccc1C(=O)NC1(c2ccc(Br)cc2)CC1 [Example 544] | 1000 to 10000 nM
55 | CC(C)(C)OC(=O)NNC(=O)/C=C/CNC(=O)C(=O)NCc1ccccc1C(=O)NC1(c2cccc3ccccc23)CC1 [Example 548] | 100 to 1000 nM
56 | N#CCNC(=O)C(=O)N1Cc2cccc(C(=O)NC3(c4cc(Br)cc5ccccc45)CC3)c2C1 [Example 315] | 1000 to 10000 nM
57 | COC(=O)/C=C/CNC(=O)C(=O)NCCc1ccccc1C(=O)N[C@H](C)c1cccc2ccccc12 [Example 37] | 100 to 1000 nM
58 | N#CCNC(=O)C(=O)NCc1ccccc1C(=O)NC1(c2cc(Oc3cccc(C(F)(F)F)c3)cc(C(F)(F)F)c2)CC1 [Example 66] | > 10000 nM
59 | O=C(NCc1ccccc1C(=O)NC1(c2ccc(F)c3ccccc23)CC1)C(=O)N[C@@H]1CNC1=O [Example 123] | > 10000 nM
60 | C#CCNC(=O)C(=O)NCc1ccccc1C(=O)NC1(c2cccc3ccccc23)COC1 [Example 102] | > 10000 nM
61 | N#CCCNC(=O)C(=O)NCCc1ccccc1C(=O)NC1(c2ccc3ccccc3c2)CC1 [Example 368] | > 10000 nM
62 | COC(=O)/C=C/CN(C)C(=O)C(=O)NCc1ccccc1C(=O)N[C@H](C)c1cccc2ccccc12 [Example 546] | 1000 to 10000 nM
63 | N#Cc1ncc(C#CCNC(=O)C(=O)NCc2ccccc2C(=O)NC2(c3ccc4ccccc4c3)CC2)cn1 [Example 182] | > 10000 nM
64 | O=C(NC/C=C\c1nccs1)C(=O)NCc1ccccc1C(=O)NC1(c2ccc3ccccc3c2)CC1 [Example 401] | 1000 to 10000 nM
65 | NC(=O)N1CC[C@H](CNC(=O)C(=O)NCc2ccccc2C(=O)NC2(c3cccc4ccccc34)CC2)C1 [Example 503] | 1000 to 10000 nM
66 | C[C@@H](C#Cc1ccc(C#N)cc1C#N)NC(=O)C(=O)NCc1ccccc1C(=O)NC1(c2ccc3nn(C)cc3c2)CC1 [Example 110] | 1000 to 10000 nM

The compounds below were run on SARS-CoV-2 replicon (assay: microbe, parasite or virus in culture). Conditions: Severe acute respiratory syndrome coronavirus 2, Huh-7.
Type: cell-based

Row | SMILES | EC50
67 | O=C(NCC#Cc1ncccc1Cl)C(=O)NCc1ccccc1C(=O)NC1(c2cc(F)cc(-c3cnn(C4CC4)c3)c2)CC1 [Example 263] | < 1000 nM
68 | O=C(NCC#CBr)C(=O)NCc1ccccc1C(=O)NC1(c2ccc3ccccc3c2)CC1 [Example 163] | < 1000 nM
69 | CC(C)(O)Cn1cc(-c2cc(C3(NC(=O)c4ccccc4CNC(=O)C(=O)NCC#N)CC3)c3ccccc3c2)cn1 [Example 353] | < 1000 nM
70 | CS(=O)(=O)n1cc(-c2cc(C3(NC(=O)c4ccccc4CNC(=O)C(=O)NCC#N)CC3)c3ccccc3c2)cn1 [Example 356] | 1000 to 10000 nM
71 | C[C@@H](C#Cc1c(F)cc(F)cc1C#N)NC(=O)C(=O)NCc1ccccc1C(=O)NC1(c2ccc3nn(C)cc3c2)CC1 [Example 105] | < 1000 nM
72 | C[C@@H](C#Cc1ncc(F)cn1)NC(=O)C(=O)NCc1ccccc1C(=O)NC1(c2cc(F)cc(-c3cnn(C4CC4)c3)c2)CC1 [Example 144] | < 1000 nM
73 | CCOc1cccnc1C#CCNC(=O)C(=O)NCc1ccccc1C(=O)NC1(c2ccc3ccccc3c2)CC1 [Example 200] | < 1000 nM
74 | CC(C)(O)c1ncc(-c2cc(C3(NC(=O)c4ccccc4CNC(=O)C(=O)NCC#N)CC3)c3ccccc3c2)s1 [Example 287] | < 1000 nM
75 | O=C(NC/C=C/C(=O)N1CC[C@H](O)C1)C(=O)NCc1ccccc1C(=O)NC1(c2cccc3ccccc23)CC1 [Example 555] | 1000 to 10000 nM
76 | N#CN1CC[C@H](C(=O)NCc2ccccc2C(=O)NC2(c3cc(Br)cc4ccccc34)CC2)C1 [Example 417] | < 1000 nM
77 | N#CN1CC[C@@H](C(=O)NCc2ccccc2C(=O)NC2(c3cc(Br)cc4ccccc34)CC2)C1 [Example 416] | < 1000 nM
78 | COC(=O)/C=C/CNC(=O)C(=O)NCc1c(F)cc(F)cc1C(=O)N[C@H](C)c1cccc2ccccc12 [Example 360] | 1000 to 10000 nM
